Assay results reported in patent US9526727B2, “Inhibitors of beta-secretase” (Vitae Pharmaceuticals, Inc., priority 2012, dated 2016).

Target: hERG channel (Homo sapiens (Human), UniProt Q12809)
Assay: hERG-Channel Assay (Assay 3), whole-cell patch clamp
Format: cell-based
Conditions: HEK293 cells stably transfected with hERG cDNA, pH 7.4, 35° C.
Text: hERG-Channel Assay (Assay 3)
• HEK (human embryonic kidney) 293 cells were stably transfected with hERG cDNA. • Pipettes and Solutions:
Cells were superfused with a bath solution containing (mM): NaCl (137), KCl (4.0), MgCl2 (1.0), CaCl2 (1.8), Glucose (10), HEPES (10), pH 7.4 with NaOH. Patch pipettes were made from borosilicate glass tubing using a horizontal puller and filled with pipette solution containing (mM): K-aspartate (130), MgCl2 (5.0), EGTA (5.0), K2ATP (4.0), HEPES (10.0), pH 7.2 with KOH. Resistance of the microelectrodes was in the range between 2 and 5 MΩ.
Stimulation and Recording:
Membrane currents were recorded using an EPC-10 patch clamp amplifier and PatchMaster software. hERG-mediated membrane currents were recorded at 35° C., using the whole-cell configuration of the patch-clamp technique. […] During each inter-pulse interval 4 pulses scaled down by a factor of 0.2 were recorded for a P/n leak subtraction procedure. […]
The different concentrations of the test compound were applied sequentially on each of the different cells investigated. A steady state level of baseline current was measured for at least 6 sweeps prior to the application of the first test compound concentration. […]
Peak current amplitudes were measured 3 ms after the ramp to +40 mV. […]

Chain of hERG channel (Q12809 whole entry): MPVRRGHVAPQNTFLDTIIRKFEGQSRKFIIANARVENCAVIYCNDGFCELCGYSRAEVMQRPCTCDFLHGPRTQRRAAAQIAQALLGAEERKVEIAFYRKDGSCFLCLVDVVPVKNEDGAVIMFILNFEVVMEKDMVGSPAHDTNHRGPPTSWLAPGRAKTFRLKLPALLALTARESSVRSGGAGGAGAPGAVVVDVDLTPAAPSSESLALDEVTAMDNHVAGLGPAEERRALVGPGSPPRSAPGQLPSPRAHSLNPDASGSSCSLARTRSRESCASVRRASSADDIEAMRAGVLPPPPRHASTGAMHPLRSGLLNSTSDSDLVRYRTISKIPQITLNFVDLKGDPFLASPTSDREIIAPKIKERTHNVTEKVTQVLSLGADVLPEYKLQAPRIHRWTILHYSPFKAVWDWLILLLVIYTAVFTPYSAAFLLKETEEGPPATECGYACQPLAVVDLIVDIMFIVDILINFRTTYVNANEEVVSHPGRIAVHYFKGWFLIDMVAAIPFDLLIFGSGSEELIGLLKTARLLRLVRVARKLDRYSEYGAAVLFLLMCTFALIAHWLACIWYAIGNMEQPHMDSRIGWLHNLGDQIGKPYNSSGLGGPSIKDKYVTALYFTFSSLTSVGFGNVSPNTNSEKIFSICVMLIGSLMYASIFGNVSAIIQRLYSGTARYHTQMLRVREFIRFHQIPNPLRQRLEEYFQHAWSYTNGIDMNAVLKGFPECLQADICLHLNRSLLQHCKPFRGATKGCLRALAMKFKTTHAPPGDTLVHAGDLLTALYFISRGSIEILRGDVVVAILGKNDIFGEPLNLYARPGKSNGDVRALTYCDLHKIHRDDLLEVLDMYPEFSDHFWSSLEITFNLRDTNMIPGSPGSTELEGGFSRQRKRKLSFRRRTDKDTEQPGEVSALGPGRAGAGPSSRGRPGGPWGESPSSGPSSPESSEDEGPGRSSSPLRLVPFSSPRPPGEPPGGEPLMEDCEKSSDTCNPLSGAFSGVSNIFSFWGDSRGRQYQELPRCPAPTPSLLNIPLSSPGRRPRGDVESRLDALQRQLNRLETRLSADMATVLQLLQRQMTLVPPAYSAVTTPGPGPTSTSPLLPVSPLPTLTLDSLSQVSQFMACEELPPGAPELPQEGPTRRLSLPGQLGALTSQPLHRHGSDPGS

SMILES: COC1CCC2(CC1)Cc1ccc(C#N)cc1C21N=C(N)N(CC2CCCO2)C1=O (stereo not shown)
- inhibition at 10 µM: 16%
